Consider 1 compound from PMC6753139, “TRIM66 reads unmodified H3R2K4 and H3K56ac to respond to DNA damage in embryonic stem cells” (Nature Communications, 2019).

The structures appear in SMILES notation.

The target in the test is T1, TRIM66-MUT968-1160 (Homo sapiens, UniProt O15016, C1161S/C1165S/C1270S/I1224T/L1137T/M1171K/V1273N/Y1166H).
T1 construct: contained residues 968 to 1160 with eight mutated residues; GST (N, cleaved yes); made in house; host or cells: Escherichia coli BL21 (DE3)
T1 sequence (O15016 1103-1295 L1137T/C1161S/C1165S/Y1166H/M1171K/I1224T/C1270S/V1273N): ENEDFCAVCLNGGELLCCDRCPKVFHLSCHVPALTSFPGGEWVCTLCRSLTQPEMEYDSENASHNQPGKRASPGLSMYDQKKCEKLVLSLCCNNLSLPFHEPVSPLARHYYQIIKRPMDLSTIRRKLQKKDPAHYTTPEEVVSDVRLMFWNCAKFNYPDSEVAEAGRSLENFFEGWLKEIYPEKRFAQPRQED
Put plainly: ITC, crystallization mutant protein. The test is classed as binding. Particulars: 25 °C, 20 mM Tris, 100 mM NaCl, pH 7.5, single measurement. The method, then: The mutant protein of the TRIM66 PHD-Bromodomain used for the crystallographic study contained residues 968 to 1160 with eight mutated residues (L1002T, C1026S, C1030S, Y1031H, M1036K, I1089T, C1135S, and V1138N). The mutant protein was dialyzed using a buffer containing 20 mM Tris, 100 mM NaCl, and 5 mM DTT at pH 7.5 prior to the crystallographic study. The H3_1-12 peptide was dissolved in the same buffer and adjusted to pH 7.5 with a final concentration of 20 mM. Crystals of the free-state TRIM66-PHD-Bromo mutant were obtained by mixing 8 mg ml^−1 protein with an equal volume of crystallization buffer (30% w/v 5000 MME, 100 mM Tris base/hydrochloric acid pH 8.0, and 200 mM lithium sulfate) using the hanging drop vapor diffusion method at 20 °C. […]
The calorimetric experiments were performed at 25 °C using a MicroCal PEAQ-ITC. […] Peptide concentrations were estimated from the quantitative NMR experiments[73],[74]. […] The ITC data were subsequently analyzed using the MicroCal PEAQ-ITC analysis software. […]
combinational manner (Fig. 1d). To further figure out the binding mode between the TRIM66 PHD-Bromodomain and the united H3(1-15)-(48-57) K56ac peptide, we performed a NMR titration experiment and carefully analyzed the linewidth changes of TRIM66 -GSGS968-1160 (this protein is […]
A general note: In ITC the heat of successive injections is recorded.

A word on the Kd: it is the equilibrium constant for the complex coming apart. For `C[C@H](N)C(=O)N[C@@H](CCCNC(=N)N)C(=O)N[C@H](C(=O)N[C@@H](CCCCN)C(=O)N[C@@H](CCC(N)=O)C(=O)N[C@H](C(=O)N[C@@H](C)C(=O)N[C@@H](CCCNC(=N)N)C(=O)N[C@@H](CCCCN)C(=O)N[C@@H](CO)C(=O)N[C@H](C(=O)NCC(=O)O)[C@@H](C)O)[C@@H](C)O)[C@@H](C)O` [H3_1-12], the Kd amounted to 19 ± 0.76 µM.
